From US20190105381A1, “METHOD FOR PREPARING VIRAL PARTICLES WITH CYCLIC DINUCLEOTIDE AND USE OF SAID PARTICLES FOR TREATING CANCER” (priority 2016, published 2019) come the findings set out here.

One experiment concerns HEK293 cells. The class given is cell-based, human. As to conditions: for effect on IFN induction by HIV-1-GFP: cGAS-reconstituted producer cells treated during virus preparation, 20 μM GW4869, 60 μM Ac-DEVD-CHO; for IFN response in target cells under pharmacological inhibition: cells treated 1 hour prior to infection, 5 μM, MOI=1.
Experiment [1] has as its system IFNβ promoter reporter (p125-F-Luc). The class given is cell-based, human. As to conditions: HEK293 cells transfected with 2 μg 2′-3′-cGAMP, 24 hours.
Experiment [2] deals with Ova-specific CD8+ T cells. Description: CD8+ T cell responses after subcutaneous immunization (tetramer, IFN-g ELISPOT). It is filed as in vivo, mice. Conditions: cGAMP at a far higher dose of cGAMP.

As for `O=C(/C=C/c1ccc(/C=C/C(=O)Nc2ccc(C3=NCCN3)cc2)cc1)Nc1ccc(C2=NCCN2)cc1` [GW4869], in the experiment on HEK293 cells, the “effect on IFN induction by HIV-1-GFP” value was “did not diminish IFN induction”.
Turning to `Nc1nc2c(ncn2[C@@H]2O[C@@H]3COP(=O)(O)O[C@H]4[C@@H](O)[C@H](n5cnc6c(N)ncnc65)O[C@@H]4COP(=O)(O)O[C@@H]2[C@@H]3O)c(=O)[nH]1` [cGAMP, 2′-3′-cyclic GMP-AMP], in experiment [1], the “IFN induction in response to cGAMP” value is “induce IFN”. Moreover, the “tumor-specific T cell response” value in experiment [2] was “not able to significantly induce”.
`Cc1ccnc2c1NC(=O)c1cccnc1N2C1CC1` [nevirapine]: the “IFN response in target cells under pharmacological inhibition” value with HEK293 cells is “independent of reverse transcription and integration”.
On the same count and under the same terms, the same measure for `Cc1nnc(C(=O)NC(C)(C)c2nc(C(=O)NCc3ccc(F)cc3)c(O)c(=O)n2C)o1` [raltegravir]: “independent of reverse transcription and integration”.
Consider Ac-DEVD-CHO, for which the “effect on IFN induction by HIV-1-GFP” value with HEK293 cells is given as “did not diminish IFN induction”.
